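Growth conditions: 96-well plates. Treatment: test compound, 48 hours, 5 concentrations. Analysis: linear interpolation between bracketing concentrations; unreached endpoints set to highest concentration. Here, GI50 denotes the concentration required for 50% inhibition of growth. TGI: concentration producing complete growth inhibition.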
Experiments:
Experiment in all cases: NCI anticancer screen, dose series, 48 h
UACC-257 melanoma = tested on: UACC-257 melanoma
MDA-MB-435 = tested on: MDA-MB-435
SW-620 colon = tested on: SW-620 colon
UO-31 renal = tested on: UO-31 renal
HCT-116 colon = tested on: HCT-116 colon
MDA-MB-231 breast = tested on: MDA-MB-231 breast
HL-60(TB) leukemia = tested on: HL-60(TB) leukemia
OVCAR-4 ovarian = tested on: OVCAR-4 ovarian
OVCAR-3 ovarian = tested on: OVCAR-3 ovarian
CAKI-1 renal = tested on: CAKI-1 renal
EKVX NSCLC = tested on: EKVX NSCLC
A549 NSCLC = tested on: A549 NSCLC
OVCAR-5 ovarian = tested on: OVCAR-5 ovarian
HCT-15 colon = tested on: HCT-15 colon
LOX IMVI melanoma = tested on: LOX IMVI melanoma
SNB-19 CNS = tested on: SNB-19 CNS
NCI-H226 lung = tested on: NCI-H226 lung
SN12C renal = tested on: SN12C renal
TK-10 renal = tested on: TK-10 renal
786-0 renal = tested on: 786-0 renal
MDA-MB-468 breast = tested on: MDA-MB-468 breast
OVCAR-8 ovarian = tested on: OVCAR-8 ovarian
HOP-62 NSCLC = tested on: HOP-62 NSCLC
SK-MEL-2 melanoma = tested on: SK-MEL-2 melanoma
HOP-92 NSCLC = tested on: HOP-92 NSCLC
PC-3 prostate = tested on: PC-3 prostate
BT-549 breast = tested on: BT-549 breast
DU-145 prostate = tested on: DU-145 prostate
SF-295 CNS = tested on: SF-295 CNS
K-562 leukemia = tested on: K-562 leukemia
SK-MEL-5 melanoma = tested on: SK-MEL-5 melanoma
UACC-62 melanoma = tested on: UACC-62 melanoma
MOLT-4 leukemia = tested on: MOLT-4 leukemia
HS 578T breast = tested on: HS 578T breast
RPMI-8226 leukemia = tested on: RPMI-8226 leukemia
NCI-H522 lung = tested on: NCI-H522 lung
SF-539 CNS = tested on: SF-539 CNS
MCF7 breast = tested on: MCF7 breast
HT29 colon = tested on: HT29 colon
KM12 colon = tested on: KM12 colon
MALME-3M melanoma = tested on: MALME-3M melanoma
SK-OV-3 ovarian = tested on: SK-OV-3 ovarian
U251 CNS = tested on: U251 CNS
SR leukemia = tested on: SR leukemia
A498 renal = tested on: A498 renal
SK-MEL-28 melanoma = tested on: SK-MEL-28 melanoma
RXF 393 renal = tested on: RXF 393 renal
ACHN renal = tested on: ACHN renal
M14 melanoma = tested on: M14 melanoma
SF-268 CNS = tested on: SF-268 CNS
IGROV1 ovarian = tested on: IGROV1 ovarian
NCI-H460 lung = tested on: NCI-H460 lung
HCC-2998 colon = tested on: HCC-2998 colon
CCRF-CEM leukemia = tested on: CCRF-CEM leukemia
NCI-H23 lung = tested on: NCI-H23 lung
COLO 205 colon = tested on: COLO 205 colon
T-47D breast = tested on: T-47D breast

CN(C)c1nc(NCCNS(=O)(=O)c2ccc(C3=Nc4c(N)nc(N)nc4NC(c4ccc(C(F)(F)F)cc4)C3)cc2)nc(N2CCOCC2)n1 (centres undefined)
GI50 (UACC-257 melanoma): 20.4 µM | TGI (UACC-257 melanoma): 54.9 µM | GI50 (MDA-MB-435): 34.2 µM | TGI (MDA-MB-435): > 100 µM | GI50 (SW-620 colon): 46.9 µM | TGI (SW-620 colon): > 100 µM | GI50 (UO-31 renal): > 100 µM | TGI (UO-31 renal): > 100 µM | GI50 (HCT-116 colon): 41.9 µM | TGI (HCT-116 colon): > 100 µM | GI50 (MDA-MB-231 breast): 16.9 µM | TGI (MDA-MB-231 breast): 44.4 µM | GI50 (HL-60(TB) leukemia): 27.4 µM | TGI (HL-60(TB) leukemia): 83.9 µM | GI50 (OVCAR-4 ovarian): 37 µM | TGI (OVCAR-4 ovarian): > 100 µM | GI50 (OVCAR-3 ovarian): 53.9 µM | TGI (OVCAR-3 ovarian): > 100 µM | GI50 (CAKI-1 renal): 25.9 µM | TGI (CAKI-1 renal): > 100 µM | GI50 (EKVX NSCLC): 47.2 µM | TGI (EKVX NSCLC): > 100 µM | GI50 (A549 NSCLC): 51.3 µM | TGI (A549 NSCLC): > 100 µM | GI50 (OVCAR-5 ovarian): 27 µM | TGI (OVCAR-5 ovarian): 95.9 µM | GI50 (HCT-15 colon): 30.9 µM | TGI (HCT-15 colon): > 100 µM | GI50 (LOX IMVI melanoma): 17.1 µM | TGI (LOX IMVI melanoma): 33.2 µM | GI50 (SNB-19 CNS): 30 µM | TGI (SNB-19 CNS): > 100 µM | GI50 (NCI-H226 lung): 17.6 µM | TGI (NCI-H226 lung): > 100 µM | GI50 (SN12C renal): 35.7 µM | TGI (SN12C renal): > 100 µM | GI50 (TK-10 renal): 54.4 µM | TGI (TK-10 renal): > 100 µM | GI50 (786-0 renal): 20.8 µM | TGI (786-0 renal): > 100 µM | GI50 (MDA-MB-468 breast): 13.7 µM | TGI (MDA-MB-468 breast): 30.9 µM | GI50 (OVCAR-8 ovarian): 59.5 µM | TGI (OVCAR-8 ovarian): > 100 µM | GI50 (HOP-62 NSCLC): 50.7 µM | TGI (HOP-62 NSCLC): > 100 µM | GI50 (SK-MEL-2 melanoma): 15.8 µM | TGI (SK-MEL-2 melanoma): 30.2 µM | GI50 (HOP-92 NSCLC): 7.48 µM | TGI (HOP-92 NSCLC): 48.3 µM | GI50 (PC-3 prostate): 24.6 µM | TGI (PC-3 prostate): > 100 µM | GI50 (BT-549 breast): 13.8 µM | TGI (BT-549 breast): 31.8 µM | GI50 (DU-145 prostate): 72 µM | TGI (DU-145 prostate): > 100 µM | GI50 (SF-295 CNS): 21.1 µM | TGI (SF-295 CNS): 83.7 µM | GI50 (K-562 leukemia): 29.1 µM | TGI (K-562 leukemia): > 100 µM | GI50 (SK-MEL-5 melanoma): 15.9 µM | TGI (SK-MEL-5 melanoma): 30.1 µM | GI50 (UACC-62 melanoma): 16.4 µM | TGI (UACC-62 melanoma): 36.4 µM | GI50 (MOLT-4 leukemia): 17.3 µM | TGI (MOLT-4 leukemia): > 100 µM | GI50 (HS 578T breast): 19.2 µM | TGI (HS 578T breast): > 100 µM | GI50 (RPMI-8226 leukemia): 11.2 µM | TGI (RPMI-8226 leukemia): > 100 µM | GI50 (NCI-H522 lung): 51.7 µM | TGI (NCI-H522 lung): > 100 µM | GI50 (SF-539 CNS): 22.5 µM | TGI (SF-539 CNS): 87.9 µM | GI50 (MCF7 breast): 18.1 µM | TGI (MCF7 breast): 81.3 µM | GI50 (HT29 colon): 19.8 µM | TGI (HT29 colon): 48.2 µM | GI50 (KM12 colon): 37 µM | TGI (KM12 colon): > 100 µM | GI50 (MALME-3M melanoma): 19.9 µM | TGI (MALME-3M melanoma): 53.3 µM | GI50 (SK-OV-3 ovarian): 69.7 µM | TGI (SK-OV-3 ovarian): > 100 µM | GI50 (U251 CNS): 24.2 µM | TGI (U251 CNS): > 100 µM | GI50 (SR leukemia): 18.1 µM | TGI (SR leukemia): > 100 µM | GI50 (A498 renal): 24.1 µM | TGI (A498 renal): 82.9 µM | GI50 (SK-MEL-28 melanoma): 34.1 µM | TGI (SK-MEL-28 melanoma): > 100 µM | GI50 (RXF 393 renal): 10.3 µM | TGI (RXF 393 renal): 45.5 µM | GI50 (ACHN renal): 64.4 µM | TGI (ACHN renal): > 100 µM | GI50 (M14 melanoma): 22 µM | TGI (M14 melanoma): 63.8 µM | GI50 (SF-268 CNS): 19.9 µM | TGI (SF-268 CNS): > 100 µM | GI50 (IGROV1 ovarian): 27 µM | TGI (IGROV1 ovarian): > 100 µM | GI50 (NCI-H460 lung): 36.5 µM | TGI (NCI-H460 lung): > 100 µM | GI50 (HCC-2998 colon): 20.2 µM | TGI (HCC-2998 colon): 46.4 µM | GI50 (CCRF-CEM leukemia): 25.9 µM | TGI (CCRF-CEM leukemia): > 100 µM | GI50 (NCI-H23 lung): 37.6 µM | TGI (NCI-H23 lung): > 100 µM | GI50 (COLO 205 colon): 16.5 µM | TGI (COLO 205 colon): 35.5 µM | GI50 (T-47D breast): 21.3 µM | TGI (T-47D breast): > 100 µM

Reference: PubChem BioAssay (NCI)
